Results reported in US20230145868A1, “UREA INHIBITORS OF MICRO-RNA” (Board of Regents, The University of Texas System, priority 2020, published 2023).
Read-outs that look alike come from different tables or passages of the source.

Columns and labels:
AGS cell line [1] = test: Migration assay, AGS; type: cell-based, human; conditions: vs DMSO
AsPC1 cell line = test: Cell proliferation assay (WST-8 or MTS), AsPC1; type: cell-based, human
Description: (§1) IC50 dose-response curves were determined using the cell proliferation assay system. Briefly, 5,000 or 10,000 cells of each cell line were plated in 96-well microculture plates in replicates of either 4 or 6. When cells became adherent, either 5 or 10 sequentially decreasing doses of the small molecule miRNA inhibitor were diluted into new media and added to individual wells. After either 24 or 48 hours, of a tetrazolium salt such as MTS, MTT, or WST-8 was added to each well at the same time of day as treatment and incubated for either 2 or 3 h at 37° C. The OD, measuring at the appropriate wavelength for the dye, was read at on a microplate spectrophotometer.
Cell proliferation is determined using a colorimetric assay. A tetrazolium salt such as MTS, MTT, or WST-8 is reduced by dehydrogenase activities in cells to give a formazan dye, which is soluble in the tissue culture media. The amount of the formazan dye (generated by the activities of dehydrogenases in cells, and directly proportional to the number of living cells) is measured after 3 h of incubation. The OD is read at 450 nm on a microplate spectrophotometer and growth values (%) are calculated as (OD treated cells/OD untreated cells)×100. The experiments are performed in triplicate. […] The OD is read at 450/550 nm on a microplate spectrophotometer, after one to seven days of the treatment. […]

pre-miR-10b = test: RT-qPCR of precursor miR-10b; type: cell-based, human; conditions: normalized to U6, vs DMSO
Description: (§2) Potential small molecule miRNA inhibitors were tested in MCF7 cells, a metastatic cell line (MM231) and an HCC cell line (HepG2) through RT-qPCR. Cells were seeded in 12-well plates 24 h before treatments at a confluence of 50-60%. They were treated at a concentration of 10 μM linifanib (positive control) or DMSO (negative control), and RNA was collected after 24 and 48 h. MicroRNA expression was tested using TaqMan microRNA assay (Applied Biosystems). The cDNA was synthesized using TaqMan Reverse Transcription Reagents kit (Applied Biosystems) and employed for quantitative RT-qPCR analysis together with TaqMan probes and SsoFastSupermix (Bio-rad). Primers and probes were purchased for hsa-miR-10b, hsa-pri-miR-10b, U6, and U48 snRNA that was used as an internal control.
(§3) To detect the levels of the precursor sequences, cDNA was synthesized using the SuperScript III cDNA kit (Invitrogen). Diluted cDNA was used for RT-qPCR analysis using iQ SYBR Green Supermix (Bio-Rad) with primers designed by in-house. Experiments were performed in triplicate; treated samples were compared to the DMSO-treated controls and normalized to the internal control. Relative expression levels were calculated using the 2-ΔCt method.

mature miR-10b = test: RT-qPCR of mature miR-10b; type: cell-based, human; conditions: normalized to U6, vs DMSO
Description: as §2, §3

HOXD10 = test: Western blot, HOXD10 expression; type: cell-based, human; conditions: vs DMSO
Description: Proteins are collected from cultured cells and lysed with 10× Lysis Buffer (Cell Signaling) freshly supplemented with a complete protease inhibitor cocktail and phosphatase inhibitors (Sigma). Bradford assay is used to measure protein concentration. Proteins are separated by polyacrylamide gel (Bio-rad) electrophoresis and were transferred to a 0.2 μm nitrocellulose membrane (Bio-rad). Quantification of protein expression was conducted using the image analysis software ImageJ.

miR-10b = test: Luciferase reporter assay of miR-10b inhibition, MCF7 cells; type: cell-based; conditions: Homo sapiens, MCF7, 48 h
Description: To identify miR-10b inhibitors, a luciferase reporter system was designed with complementary oligonucleotides for miR-10b.This luciferase reporter would repress Renilla luciferase signal in the presence of a functional mature miR-10b. However, in the presence of a small molecule that can inhibit mature miR-10b expression or affect its downstream function, the luciferase expression is restored again.
The PsiCHECK™-2 luciferase reporter vector was acquired from Promega™, Complementary oligonucleotides for hsa-miR-10b were designed based on the mature miRNA sequence and obtained from Thermo Fisher Scientific. In the design of the microRNA target sequence, several base pairs were added to have two different restriction sites recognizable by the enzyme SgfI at one side, and PmeI on the other (present in the vector as well). In addition, the insert was designed with a restriction site for SacI enzyme in order to have an additional site to digest the vector when monitoring colonies for the presence/absence of the insert. The designed oligonucleotides were annealed as follows: Complementary strands were mixed at a 1:1 molar ratio in a micro centrifuge tube. The mixture was diluted to a final concentration of 1 pmol/μl with a buffer solution of 10 mM Tris, 1 mM EDTA, and 50 mM NaCl (pH 8.0). Mixes were incubated at 95° C. for 5 min, and then the heat was reduced gradually for 70 min, until reaching 4° C. The annealed oligonucleotides were digested along with the PsiCHECK™2 vector with SgfI and PmeI and ligated at the 3′-UTR (downstream) of the Renilla luciferase reporter gene in the PsiCHECK™-2vector. Insert sequences were further confirmed in two ways: enzymatic digestion and sequencing.
MCF7 cells were seeded 24 h prior to transfection in 96 well plates (2.0×10^4 cells/well). For testing the sensitivity of the assay, antagomiRs and pre-miRs against miR-10b were used at a final concentration of 100 nM. For testing small molecule miRNA inhibitors, the compounds of interest were added to a final concentration of 10 μM. The assay was done in MCF7 or MDA-MB-231 cells at approximately 60% confluence using Lipofectamine in Opti-Mem media with the final vector concentration of 250 ng/mL. All transfections were performed in triplicate for statistical analysis. The cells were incubated at 37° C. for 6 h, followed by replacement of the transfected media with fresh media. After 48 h incubation, the media was removed, and cells were lysed and assayed with a Dual Luciferase Assay Kit (Promega) using a Vi-Tech luminometer. The ratio of Renilla to firefly luciferase expression was calculated for each of the triplicates.

AGS cell line [2] = test: Cell proliferation assay (WST-8 or MTS), AGS; type: cell-based, human
Description: as §1
Cell proliferation is determined using a colorimetric assay. A tetrazolium salt such as MTS, MTT, or WST-8 is reduced by dehydrogenase activities in cells to give a formazan dye, which is soluble in the tissue culture media. The amount of the formazan dye (generated by the activities of dehydrogenases in cells, and directly proportional to the number of living cells) is measured after 3 h of incubation. The OD is read at 450 nm on a microplate spectrophotometer and growth values (%) are calculated as (OD treated cells/OD untreated cells)×100. The experiments are performed in triplicate. Cell viability is also tested by bromodeoxyuridine (BrdU) test according to the instructions. 2000 MM231, MCF7 and HepG2 cells are seeded to 96-well plate. After 24 h, 10 μM DMSO or linifanib is added to each well. The OD is read at 450/550 nm on a microplate spectrophotometer, after one to seven days of the treatment. The experiments are performed in triplicate.

[3] = Table 6, MCF7, second biological replicant, 10 μM compound, mean of triplicate, read-out: n-fold increase in luciferase expression, Mean
[4] = Table 6, MCF7, second biological replicant, 10 μM compound, replicate #1, read-out: n-fold increase in luciferase expression, #1
[5] = Table 6, MCF7, second biological replicant, 10 μM compound, replicate #2, read-out: n-fold increase in luciferase expression, #2
[6] = Table 6, MCF7, second biological replicant, 10 μM compound, replicate #3, read-out: n-fold increase in luciferase expression, #3
[7] = 5 and 10 μM, beginning at 48 h of treatment

Row | SMILES | migration (AGS cell line [1]) | expression of pre-miR-10b (pre-miR-10b; AGS gastric cell line) | expression of pre-miR-10b (pre-miR-10b; AsPC1 pancreatic cell line) | level of mature miR-10b (mature miR-10b; AGS gastric cell line) | level of mature miR-10b (mature miR-10b; AsPC1 pancreatic cell line) | HOXD10 expression (Western blot) (HOXD10; AGS cell line) | fold induction at 10 µM (miR-10b; [3]) | fold induction at 10 µM (miR-10b; [4]) | fold induction at 10 µM (miR-10b; [5]) | fold induction at 10 µM (miR-10b; [6]) | also measured
1 | Cc1ccc(F)c(NC(=O)Nc2ccc(-c3cncnc3)cc2)c1 [Example 2, 1-(2-fluoro-5-methylphenyl)-3-(4-(pyrimidin-5-yl)phenyl)urea] | decreased migration | increased expression of pre-miR-10b | increased expression of pre-miR-10b | reduce the level of mature miR-10b | reduces the level of mature miR-10b | upregulated | 2.44 | 2.51 | 2.84 | 1.96 | proliferation (AsPC1 cell line; 10 μM, vs DMSO): reduced proliferation; fold induction at 10 µM (miR-10b; Table 3, MCF7, 10 μM compound, vs negative control (DMSO), mean of triplicate, read-out: n-fold increase in luciferase expression, Mean): 2.19; fold induction at 10 µM (miR-10b; Table 3, MCF7, 10 μM compound, vs negative control (DMSO), replicate #1, read-out: n-fold increase in luciferase expression, #1): 2.75; fold induction at 10 µM (miR-10b; Table 3, MCF7, 10 μM compound, vs negative control (DMSO), replicate #2, read-out: n-fold increase in luciferase expression, #2): 1.78; fold induction at 10 µM (miR-10b; Table 3, MCF7, 10 μM compound, vs negative control (DMSO), replicate #3, read-out: n-fold increase in luciferase expression, #3): 2.05; proliferation (AGS cell line [2]; 10 μM, 5 μM and 2 μM, vs DMSO): reduced proliferation
2 | Cc1ccc(F)c(NC(=O)Nc2ccc(-c3cccc4cn[nH]c34)cc2)c1 [Example 4, 1-(4-(1H-indazol-7-yl)phenyl)-3-(2-fluoro-5-methylphenyl)urea] | decreased migration | increasing precursor miRNA transcript | increasing precursor miRNA transcript | reduces the level of mature miR-10b | reduces the level of mature miR-10b | upregulated | 2.54 | 4.28 | 2.09 | 1.24 | proliferation (MTS), every 24 h over 96 h (AsPC1 cell line; [7]): significant difference in proliferation; HOXD10 expression (Western blot) (HOXD10; AsPC1 cell line): upregulated; fold induction at 10 µM (miR-10b; Table 4, MCF7, 10 μM compound, vs negative control (DMSO), mean of triplicate, read-out: n-fold increase in luciferase expression, Mean): 2.71; fold induction at 10 µM (miR-10b; Table 4, MCF7, 10 μM compound, vs negative control (DMSO), replicate #1, read-out: n-fold increase in luciferase expression, #1): 1.95; fold induction at 10 µM (miR-10b; Table 4, MCF7, 10 μM compound, vs negative control (DMSO), replicate #2, read-out: n-fold increase in luciferase expression, #2): 3.8; fold induction at 10 µM (miR-10b; Table 4, MCF7, 10 μM compound, vs negative control (DMSO), replicate #3, read-out: n-fold increase in luciferase expression, #3): 2.39; cell viability (proliferation ability) (AGS cell line [2]; 10 μM, vs DMSO): statistically significant effect; proliferation (MTS), every 24 h over 96 h (AGS cell line [2]; [7]): significant difference in proliferation
